US5288730A, “Azabicyclic compounds, pharmaceutical compositions containing them and their use in therapy” (Merck Sharp & Dohme Limited, priority 1991, dated 1994)
Structures can show the parent of a compound that is named as a salt.

Biological target: T1, human neurokinin-1-receptor (NK1R) (Homo sapiens, UniProt P25103)
T1 construct: expressed in transfected cells
Experiment: Substance P antagonism assay: 125I-substance P binding to human NK1R expressed in COS or CHO cells
Details: 125I-substance P displacement, 4° C. or room temperature, 1 hour
Protocol: To express the cloned human neurokinin-1-receptor (NK1R) transiently in COS, the cDNA for the human NK1R was cloned into the expression vector pCDM9 which was derived from pCDM8 (INVITROGEN) by inserting the ampicillin resistance gene (nucleotide 1973 to 2964 from BLUESCRIPT SK+ (trademark, STRATAGENE, La Jolla, Calif., USA)) into the Sac II site. Transfection of 20 ug of the plasmid DNA into 10 million COS cells was achieved by electroporation in 800 μof transfection buffer (135 mM NaCl, 1.2 mM CaCl2, 1.2 mM MgCl2 2.4 mM K2 HPO4, 0.6 mM KH2 PO4, 10 mM glucose, 10 mM N-2-hydroxyethyl-piperazine-N'-2-ethane sulphonic acid (HEPES) pH 7.4) at 260 V and 950 μusing the IBI GENEZAPPER (trademark IBI, New Haven, Conn., USA). The cells were incubated in 10% fetal calf serum, 2 mM glutamine, 100 U/ml penicillin-streptomycin, and 90% DMEM media (GIBCO, Grand Island, N.Y., USA) in 5% CO2 at 37° C. for three days before the binding assay.
To establish a stable cell line expressing cloned human NK1R, the cDNA was subcloned into the vector pRcCMV (INVITROGEN). Transfection of 20 ug of the plasmid DNA into CHO cells was achieved by electroporation in 800 μl of transfection buffer supplemented with 0.625 mg/ml Herring sperm DNA at 300 V and 950 μF using the IBI GENEZAPPER (IBI). The transfected cells were incubated in CHO media [10% fetal calf serum, 100 U/ml penicillin-streptomycin, 2 mM glutamine, 1/500 hypoxanthine-thymidine (ATCC), 90% IMDM media (JRH BIOSCIENCES, Lenexa, Kans., USA), 0.7 mg/ml G418 (GIBCO)] in 5% CO2 at 37° C. until colonies were visible. Each colony was separated and propagated. The cell clone with the highest number of human NK1R was selected for subsequent applications such as drug screening.
The binding assay of human NK1R expressed in either COS or CHO cells is based on the use of ^125 I-substance P (^125 I-SP, from DU PONT, Boston, Mass.) as a radioactively labeled ligand which competes with unlabeled substance P or any other ligand for binding to the human NK1R. Monolayer cell cultures of COS or CHO were dissociated by the non-enzymatic solution (SPECIALTY MEDIA, Lavellette, N.J.) and resuspended in appropriate volume of the binding buffer (50 mM Tris pH 7.5, 5 mM MnCl2, 150 mM NaCl, 0.04 mg/ml bacitracin, 0.004 mg/ml leupeptin, 0.2 mg/ml BSA, 0.01 mM phosphoramidon) such that 200 μl of the cell suspension would give rise to about 10,000 cpm of specific ^125 I-SP binding (approximately 50,000 to 200,000 cells). In the binding assay, 200 ul of cells were added to a tube containing 20 ul of 1.5 to 2.5 nM of ^125 I-SP and 20 μl of unlabeled substance P or any other test compound. The tubes were incubated at 4° C. or at room temperature for 1 hour with gentle shaking. The bound radioactivity was separated from unbound radioactivity by GF/C filter (BRANDEL, Gaithersburg, Md.) which was prewetted with 0.1% polyethylenimine. The filter was washed with 3 ml of wash buffer (50 mM Tris pH 7.5, 5 mM MnCl2, 150 mM NaCl) three times and its radioactivity was determined by gamma counter.

T1 sequence (P25103 whole entry): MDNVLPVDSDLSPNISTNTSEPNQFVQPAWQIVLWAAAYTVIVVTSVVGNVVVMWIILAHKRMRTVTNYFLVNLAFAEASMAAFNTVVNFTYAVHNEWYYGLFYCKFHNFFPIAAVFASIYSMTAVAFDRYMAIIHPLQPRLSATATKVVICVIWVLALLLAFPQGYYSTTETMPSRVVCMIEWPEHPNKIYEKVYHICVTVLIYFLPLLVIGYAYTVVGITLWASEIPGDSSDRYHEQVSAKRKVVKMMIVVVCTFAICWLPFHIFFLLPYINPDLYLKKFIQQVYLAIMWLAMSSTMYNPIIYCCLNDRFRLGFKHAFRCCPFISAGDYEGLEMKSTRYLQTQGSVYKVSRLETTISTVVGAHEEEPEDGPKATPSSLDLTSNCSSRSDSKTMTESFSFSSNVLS

Compound | IC50 [nM]
Cc1cc(C)cc(COC2C3CCN(CC3)C2C(Cc2ccccc2)c2ccccc2)c1 (single isomer, unassigned) [1: ISOMER A] | 2.4
Cc1cc(C)cc(COC2C3CCN(CC3)C2C(Cc2ccccc2)c2ccccc2)c1 (single isomer, unassigned) [1: ISOMER B] | 1.8
Cc1cc(C)cc(COC2C3CCN(CC3)C2C(Cc2ccccc2)c2ccccc2)c1 (single isomer, unassigned) [1: ISOMER C] | > 100
FC(F)(F)c1cc(COC2C3CCN(CC3)C2C(Cc2ccccc2)c2ccccc2)cc(C(F)(F)F)c1 (single isomer, unassigned) [2: ISOMER A] | 4.5
FC(F)(F)c1cc(COC2C3CCN(CC3)C2C(Cc2ccccc2)c2ccccc2)cc(C(F)(F)F)c1 (single isomer, unassigned) [2: ISOMER B] | 6.3
FC(F)(F)c1cc(COC2C3CCN(CC3)C2C(Cc2ccccc2)c2ccccc2)cc(C(F)(F)F)c1 (single isomer, unassigned) [2: ISOMER C] | > 100
COc1ccc(C(Cc2ccccc2)C2C(OCc3cc(C(F)(F)F)cc(C(F)(F)F)c3)C3CCN2CC3)cc1 (single isomer, unassigned) [3: ISOMER A] | 3
COc1cccc(C(Cc2ccccc2)C2C(OCc3cc(C(F)(F)F)cc(C(F)(F)F)c3)C3CCN2CC3)c1 (single isomer, unassigned) [4: ISOMER A] | 10
COc1cccc(C(Cc2ccccc2)C2C(OCc3cc(C(F)(F)F)cc(C(F)(F)F)c3)C3CCN2CC3)c1 (single isomer, unassigned) [4: ISOMER B] | 1.8
FC(F)(F)c1cc(COC2C3CCN(CC3)C2C(c2ccccc2)C2CCCCC2)cc(C(F)(F)F)c1 (stereo not drawn) [Example 5, 3-(3,5-Bis(trifluoromethyl)phenyl)methyloxy-2-(α-cyclohexylbenzyl)-1-azabicyclo[2.2.2]octane oxalate hemihydrate] | 3
